Results as given in paper PMC5218480 (PLoS ONE, 2017).

Test system: MV-4-11 cells
Assay: Gene expression microarray analysis (Affymetrix PrimeView) and GSEA
Format: cell-based, human
Design: RFU PODN (11730768_x_at) / Fold change /veh PODN (11730768_x_at) / RFU LINC00158 (11744669_a_at) / Fold change /veh LINC00158 (11744669_a_at) / RFU DUSP10 (11751237_a_at) / Fold change /veh DUSP10 (11751237_a_at) / RFU ID3 (11757404_x_at) / Fold change /veh ID3 (11757404_x_at) / RFU PLEKHG5 (11737974_s_at) / Fold change /veh PLEKHG5 (11737974_s_at) / RFU LRRC4B (11730491_at) / Fold change /veh LRRC4B (11730491_at) / RFU GIMAP4 (11747438_a_at) / Fold change /veh GIMAP4 (11747438_a_at) / RFU KRT8 (11758183_x_at) / Fold change /veh KRT8 (11758183_x_at) / RFU CNN1 (11734310_a_at) / Fold change /veh CNN1 (11734310_a_at) / RFU VPS37D (11726825_at) / Fold change /veh VPS37D (11726825_at) / RFU C10orf10 (11716522_x_at) / Fold change /veh C10orf10 (11716522_x_at) / RFU KIR2DL2 /// KIR2DL4 /// KIR2DL5A /// KIR2DL5B /// KIR2DS1 /// KIR2DS2 /// KIR2DS3 /// KIR2DS4 /// KIR3DL3 /// KIR3DL3 /// KIR3DS1 (11738374_at) / Fold change /veh KIR2DL2 /// KIR2DL4 /// KIR2DL5A /// KIR2DL5B /// KIR2DS1 /// KIR2DS2 /// KIR2DS3 /// KIR2DS4 /// KIR3DL3 /// KIR3DL3 /// KIR3DS1 (11738374_at) / RFU C1QL1 (11718748_at) / Fold change /veh C1QL1 (11718748_at) / RFU TMPRSS4 (11747572_a_at) / Fold change /veh TMPRSS4 (11747572_a_at) / RFU HAMP (11756126_x_at) / Fold change /veh HAMP (11756126_x_at) / RFU RNFT2 (11725882_a_at) / Fold change /veh RNFT2 (11725882_a_at) / RFU NR4A2 (11747474_a_at) / Fold change /veh NR4A2 (11747474_a_at) / RFU ABCC12 (11746883_a_at) / Fold change /veh ABCC12 (11746883_a_at) / RFU TMEM136 (11760407_x_at) / Fold change /veh TMEM136 (11760407_x_at) / RFU CLDN22 /// WWC2 (11732394_at) / Fold change /veh CLDN22 /// WWC2 (11732394_at) / RFU HLA-DPB1 (11760878_x_at) / Fold change /veh HLA-DPB1 (11760878_x_at) / RFU SPINT1 (11716480_a_at) / Fold change /veh SPINT1 (11716480_a_at) / RFU GAP43 (11754022_s_at) / Fold change /veh GAP43 (11754022_s_at) / RFU A4GNT (11735810_at) / Fold change /veh A4GNT (11735810_at) / RFU PRB3 (11715151_x_at) / Fold change /veh PRB3 (11715151_x_at) / RFU TUBB4B (11761932_at) / Fold change /veh TUBB4B (11761932_at) / RFU CAPN14 (11732068_a_at) / Fold change /veh CAPN14 (11732068_a_at) / RFU TMCC2 (11721928_a_at) / Fold change /veh TMCC2 (11721928_a_at) / RFU IRGQ (11745062_a_at) / Fold change /veh IRGQ (11745062_a_at) / RFU FAM174B (11720279_a_at) / Fold change /veh FAM174B (11720279_a_at) / RFU TMPRSS4 (11748680_a_at) / Fold change /veh TMPRSS4 (11748680_a_at) / RFU FAM212B (11763350_a_at) / Fold change /veh FAM212B (11763350_a_at) / RFU PLEKHG5 (11743358_a_at) / Fold change /veh PLEKHG5 (11743358_a_at) / RFU ZSCAN30 (11745921_a_at) / Fold change /veh ZSCAN30 (11745921_a_at) / RFU CMKLR1 (11741424_a_at) / Fold change /veh CMKLR1 (11741424_a_at) / RFU LOC101060620 /// MAPK8IP1 (11723275_at) / Fold change /veh LOC101060620 /// MAPK8IP1 (11723275_at) / RFU SPTSSB (11747773_x_at) / Fold change /veh SPTSSB (11747773_x_at) / RFU PRSS12 (11739890_at) / Fold change /veh PRSS12 (11739890_at) / RFU BIN1 (11741810_x_at) / Fold change /veh BIN1 (11741810_x_at) / RFU WNT11 (11732464_a_at) / Fold change /veh WNT11 (11732464_a_at) / RFU C10orf10 (11716521_a_at) / Fold change /veh C10orf10 (11716521_a_at) / RFU C5orf56 (11738089_at) / Fold change /veh C5orf56 (11738089_at) / RFU CYB561 (11721691_x_at) / Fold change /veh CYB561 (11721691_x_at) / RFU ANKRD19P (11752326_a_at) / Fold change /veh ANKRD19P (11752326_a_at) / RFU OR2T12 /// OR2T33 /// OR2T8 (11738714_s_at) / Fold change /veh OR2T12 /// OR2T33 /// OR2T8 (11738714_s_at) / RFU VCAN (11748164_a_at) / Fold change /veh VCAN (11748164_a_at) / RFU JSRP1 (11732532_at) / Fold change /veh JSRP1 (11732532_at) / RFU KRTAP10-11 (11738290_x_at) / Fold change /veh KRTAP10-11 (11738290_x_at) / RFU MYO3A (11730013_a_at) / Fold change /veh MYO3A (11730013_a_at) / RFU EBF3 (11725865_a_at) / Fold change /veh EBF3 (11725865_a_at) / RFU CAMK2N1 (11719241_x_at) / Fold change /veh CAMK2N1 (11719241_x_at) / RFU C5orf56 (11738088_a_at) / Fold change /veh C5orf56 (11738088_a_at) / RFU OLFML3 (11715873_a_at) / Fold change /veh OLFML3 (11715873_a_at) / RFU LOC100653217 /// NTM (11731650_a_at) / Fold change /veh LOC100653217 /// NTM (11731650_a_at) / RFU MAPK11 (11762145_a_at) / Fold change /veh MAPK11 (11762145_a_at) / RFU FIZ1 (11724087_x_at) / Fold change /veh FIZ1 (11724087_x_at) / RFU OASL (11726364_x_at) / Fold change /veh OASL (11726364_x_at) / RFU SOX15 (11748057_x_at) / Fold change /veh SOX15 (11748057_x_at) / RFU CD79A (11719716_a_at) / Fold change /veh CD79A (11719716_a_at) / RFU HIST1H1D (11736915_at) / Fold change /veh HIST1H1D (11736915_at) / RFU CASKIN2 (11723855_a_at) / Fold change /veh CASKIN2 (11723855_a_at) / RFU LOC730098 (11760151_x_at) / Fold change /veh LOC730098 (11760151_x_at) / RFU OR4N2 (11742367_at) / Fold change /veh OR4N2 (11742367_at) / RFU PRRT2 (11749266_a_at) / Fold change /veh PRRT2 (11749266_a_at) / RFU SNX32 (11753110_a_at) / Fold change /veh SNX32 (11753110_a_at) / RFU CDHR5 (11726645_a_at) / Fold change /veh CDHR5 (11726645_a_at) / RFU RCAN1 (11760418_a_at) / Fold change /veh RCAN1 (11760418_a_at) / RFU FAM167A (11723789_a_at) / Fold change /veh FAM167A (11723789_a_at) / RFU FAM26E (11764081_at) / Fold change /veh FAM26E (11764081_at) / RFU ISYNA1 (11749810_s_at) / Fold change /veh ISYNA1 (11749810_s_at) / RFU ACY1 (11761880_at) / Fold change /veh ACY1 (11761880_at) / RFU 11764098_at / Fold change /veh 11764098_at / RFU SAMD14 (11745864_x_at) / Fold change /veh SAMD14 (11745864_x_at) / RFU NPB (11741838_a_at) / Fold change /veh NPB (11741838_a_at) / RFU TMPRSS6 (11731388_a_at) / Fold change /veh TMPRSS6 (11731388_a_at) / RFU KRTAP10-2 (11738614_at) / Fold change /veh KRTAP10-2 (11738614_at) / RFU ARHGAP8 /// PRR5-ARHGAP8 (11727945_x_at) / Fold change /veh ARHGAP8 /// PRR5-ARHGAP8 (11727945_x_at) / RFU KRTAP5-7 /// NADSYN1 (11734609_at) / Fold change /veh KRTAP5-7 /// NADSYN1 (11734609_at) / RFU RASL12 (11751679_a_at) / Fold change /veh RASL12 (11751679_a_at) / RFU CDKN2B (11736163_a_at) / Fold change /veh CDKN2B (11736163_a_at) / RFU PRF1 (11729649_at) / Fold change /veh PRF1 (11729649_at) / RFU, ZNF638 /// ZNF638-IT1 / Fold change vs veh, ZNF638 /// ZNF638-IT1 / RFU, PANK3 / Fold change vs veh, PANK3 / RFU, SH3YL1 / Fold change vs veh, SH3YL1 / RFU, ZEB2 / Fold change vs veh, ZEB2 / RFU, NRIP1 / Fold change vs veh, NRIP1 / RFU, PTTG1IP / Fold change vs veh, PTTG1IP / RFU, CAPN2 / Fold change vs veh, CAPN2 / RFU, MED14 / Fold change vs veh, MED14 / RFU, SNORA58 / Fold change vs veh, SNORA58 / RFU, C1orf63 / Fold change vs veh, C1orf63 / RFU, LRRFIP1 / Fold change vs veh, LRRFIP1 / RFU, NDUFAF7 / Fold change vs veh, NDUFAF7 / RFU, SLC12A2 / Fold change vs veh, SLC12A2 / RFU, IBTK / Fold change vs veh, IBTK / RFU, ESF1 / Fold change vs veh, ESF1 / Fold change vs veh, TMEM50B / RFU, TAOK1 / Fold change vs veh, TAOK1 / RFU, ACBD3 / Fold change vs veh, ACBD3 / RFU, TMA16 / Fold change vs veh, TMA16 / RFU, RWDD3 / Fold change vs veh, RWDD3 / RFU, BCAT1 / Fold change vs veh, BCAT1 / RFU, EDEM3 / Fold change vs veh, EDEM3 / RFU, TMEM33 / Fold change vs veh, TMEM33 / RFU, WDR75 / Fold change vs veh, WDR75 / RFU, AHCTF1 / Fold change vs veh, AHCTF1 / RFU, TFRC / Fold change vs veh, TFRC / RFU, ZDHHC17 / Fold change vs veh, ZDHHC17 / RFU, NOM1 / Fold change vs veh, NOM1 / RFU, ARL8B / Fold change vs veh, ARL8B / RFU, ZBTB11 / Fold change vs veh, ZBTB11 / RFU, TAMM41 / Fold change vs veh, TAMM41 / RFU, KIAA1704 /// LOC100996395 / Fold change vs veh, KIAA1704 /// LOC100996395 / RFU, ING1 / Fold change vs veh, ING1 / RFU, TRMT61B / Fold change vs veh, TRMT61B / RFU, FUBP3 / Fold change vs veh, FUBP3 / RFU, TP53 / Fold change vs veh, TP53 / RFU, TNKS2 / Fold change vs veh, TNKS2 / RFU, ZFP14 / Fold change vs veh, ZFP14 / RFU, ACTR2 / Fold change vs veh, ACTR2 / RFU, PPP3R1 / Fold change vs veh, PPP3R1 / RFU, PIK3R1 / Fold change vs veh, PIK3R1 / RFU, HNRNPA1 / Fold change vs veh, HNRNPA1 / RFU, RNF170 / Fold change vs veh, RNF170 / RFU, ZNF28 / Fold change vs veh, ZNF28 / RFU, RNGTT / Fold change vs veh, RNGTT / RFU, OGT / Fold change vs veh, OGT / RFU, BRD1 / Fold change vs veh, BRD1 / RFU, MARS / Fold change vs veh, MARS / RFU, ZNF655 / Fold change vs veh, ZNF655 / RFU, FAHD1 / Fold change vs veh, FAHD1 / RFU, BDP1 / Fold change vs veh, BDP1 / RFU, LRRCC1 / Fold change vs veh, LRRCC1 / RFU, ARID1A / Fold change vs veh, ARID1A / RFU, ZNF146 / Fold change vs veh, ZNF146 / RFU, ZNF330 / Fold change vs veh, ZNF330 / RFU, GPN3 / Fold change vs veh, GPN3 / RFU, C9orf123 / Fold change vs veh, C9orf123 / RFU, N4BP2L2 / Fold change vs veh, N4BP2L2 / RFU, ARFIP1 / Fold change vs veh, ARFIP1 / RFU, FAM179B / Fold change vs veh, FAM179B / RFU, BCL10 / Fold change vs veh, BCL10 / RFU, UHRF1BP1L / Fold change vs veh, UHRF1BP1L / RFU, BET1 / Fold change vs veh, BET1 / RFU, CNOT2 / Fold change vs veh, CNOT2 / RFU, ZNF268 / Fold change vs veh, ZNF268 / Fold change vs veh, ZNF507 / RFU, DGCR2 / Fold change vs veh, DGCR2 / RFU, WDSUB1 / Fold change vs veh, WDSUB1 / Fold change vs veh, HSP90B1 /// MIR3652 / RFU, ADSS / Fold change vs veh, ADSS / RFU, GK / Fold change vs veh, GK / RFU, ZNF148 / Fold change vs veh, ZNF148 / RFU, TAF9 / Fold change vs veh, TAF9 / RFU, SLC1A5 / Fold change vs veh, SLC1A5 / RFU, SLMO2 / Fold change vs veh, SLMO2 / RFU, ABCC4 / Fold change vs veh, ABCC4 / RFU, LOC101060439 /// RAP1B / Fold change vs veh, LOC101060439 /// RAP1B / RFU, RFX7 / Fold change vs veh, RFX7 / RFU, GTPBP10 / Fold change vs veh, GTPBP10 / RFU, CNEP1R1 / Fold change vs veh, CNEP1R1 / RFU, BIVM-ERCC5 /// ERCC5 / Fold change vs veh, BIVM-ERCC5 /// ERCC5 / RFU, ILF3 / Fold change vs veh, ILF3 / RFU 11762660_at / Fold change /veh 11762660_at / RFU VCAN (11757783_s_at) / Fold change /veh VCAN (11757783_s_at) / RFU DDX43 (11728927_at) / Fold change /veh DDX43 (11728927_at) / RFU KRT8 (11758188_x_at) / Fold change /veh KRT8 (11758188_x_at) / RFU NKD1 (11759106_at) / Fold change /veh NKD1 (11759106_at) / RFU SRD5A1 (11742802_a_at) / Fold change /veh SRD5A1 (11742802_a_at) / RFU TPSAB1 /// TPSB2 (11721975_s_at) / Fold change /veh TPSAB1 /// TPSB2 (11721975_s_at) / RFU GSTM3 (11746129_a_at) / Fold change /veh GSTM3 (11746129_a_at) / RFU IL23R (11737362_x_at) / Fold change /veh IL23R (11737362_x_at) / RFU TMEM51 (11727254_a_at) / Fold change /veh TMEM51 (11727254_a_at) / RFU PIWIL2 (11732686_x_at) / Fold change /veh PIWIL2 (11732686_x_at) / RFU ORM1 (11744905_x_at) / Fold change /veh ORM1 (11744905_x_at) / RFU CCDC152 (11743942_at) / Fold change /veh CCDC152 (11743942_at) / RFU ECM1 (11717891_a_at) / Fold change /veh ECM1 (11717891_a_at) / RFU IL23R (11748794_a_at) / Fold change /veh IL23R (11748794_a_at) / RFU TNFAIP8L3 (11732012_x_at) / Fold change /veh TNFAIP8L3 (11732012_x_at) / RFU MBOAT4 (11741988_at) / Fold change /veh MBOAT4 (11741988_at) / RFU 11764193_at / Fold change /veh 11764193_at / RFU TMEM53 (11763286_at) / Fold change /veh TMEM53 (11763286_at) / RFU MAGEB2 (11727129_at) / Fold change /veh MAGEB2 (11727129_at) / RFU TMEM200A (11744735_a_at) / Fold change /veh TMEM200A (11744735_a_at) / RFU CCDC152 (11751479_a_at) / Fold change /veh CCDC152 (11751479_a_at) / RFU FAM211A (11726209_a_at) / Fold change /veh FAM211A (11726209_a_at) / RFU RGS16 (11746705_a_at) / Fold change /veh RGS16 (11746705_a_at) / RFU VCAN (11755009_s_at) / Fold change /veh VCAN (11755009_s_at) / RFU RHOB (11743442_s_at) / Fold change /veh RHOB (11743442_s_at) / RFU RGS16 (11720943_a_at) / Fold change /veh RGS16 (11720943_a_at) / RFU RGS16 (11720944_at) / Fold change /veh RGS16 (11720944_at) / RFU, VPS4B / Fold change vs veh, VPS4B / RFU, CREB1 / Fold change vs veh, CREB1 / RFU, DNAJC13 / Fold change vs veh, DNAJC13 / RFU, GNAQ / Fold change vs veh, GNAQ / RFU, CDK5R1 / Fold change vs veh, CDK5R1 / RFU, ZRANB3 / Fold change vs veh, ZRANB3 / RFU, CUL4A / Fold change vs veh, CUL4A / RFU, CCNY / Fold change vs veh, CCNY / RFU, UFL1 / Fold change vs veh, UFL1 / RFU, COG3 / Fold change vs veh, COG3 / RFU, DIAPH2 / Fold change vs veh, DIAPH2 / RFU, SKA2 / Fold change vs veh, SKA2 / RFU, AFF3 / Fold change vs veh, AFF3 / RFU, LMF1 / Fold change vs veh, LMF1 / RFU, IPO11 / Fold change vs veh, IPO11 / RFU, DFFB / Fold change vs veh, DFFB / RFU, FOXP1 / Fold change vs veh, FOXP1 / RFU, CARD8 / Fold change vs veh, CARD8 / RFU, STRN3 / Fold change vs veh, STRN3 / RFU, ADK / Fold change vs veh, ADK / RFU, RASSF2 / Fold change vs veh, RASSF2 / RFU, WIPF1 / Fold change vs veh, WIPF1 / RFU, LARP1B / Fold change vs veh, LARP1B / RFU, RASA1 / Fold change vs veh, RASA1 / RFU, RB1 / Fold change vs veh, RB1 / RFU, PPFIA1 / Fold change vs veh, PPFIA1 / RFU, MAT2A / Fold change vs veh, MAT2A / RFU, CCT5 / Fold change vs veh, CCT5 / RFU, WDR92 / Fold change vs veh, WDR92 / RFU, CUX1 / Fold change vs veh, CUX1 / RFU, TTC7A / Fold change vs veh, TTC7A / RFU, TMEM135 / Fold change vs veh, TMEM135 / RFU, DEPTOR / Fold change vs veh, DEPTOR / RFU, CPM / Fold change vs veh, CPM / RFU, DNAJB6 / Fold change vs veh, DNAJB6 / RFU, CACNA2D3 / Fold change vs veh, CACNA2D3 / RFU, DTX4 / Fold change vs veh, DTX4 / RFU, TFCP2 / Fold change vs veh, TFCP2 / RFU, GMCL1 /// GMCL1P1 / Fold change vs veh, GMCL1 /// GMCL1P1 / RFU, AEBP2 / Fold change vs veh, AEBP2 / RFU, SNHG1 /// SNORD22 /// SNORD25 /// SNORD26 /// SNORD27 /// SNORD28 /// SNORD29 /// SNORD31 / Fold change vs veh, SNHG1 /// SNORD22 /// SNORD25 /// SNORD26 /// SNORD27 /// SNORD28 /// SNORD29 /// SNORD31 / Fold change (Aza/veh), C12orf56 (ProbeSet 11735607_a_at) / Fold change (ACY-1035/veh), C12orf56 (ProbeSet 11735607_a_at) / Fold change (Aza/veh), FGFR1OP (ProbeSet 11751329_s_at) / Fold change (ACY-1035/veh), FGFR1OP (ProbeSet 11751329_s_at) / Fold change (Aza/veh), VPS36 (ProbeSet 11739960_a_at) / Fold change (ACY-1035/veh), VPS36 (ProbeSet 11739960_a_at) / RFU SYPL1 (11715823_x_at) / Fold change /veh SYPL1 (11715823_x_at) / RFU IGFBP7 (11715501_s_at) / Fold change /veh IGFBP7 (11715501_s_at) / RFU REEP3 (11722064_at) / Fold change /veh REEP3 (11722064_at) / RFU IGLL1 (11728026_x_at) / Fold change /veh IGLL1 (11728026_x_at): dose or concentration left out as unconfirmed
Conditions: ProbeSet 11747888_a_at; LIST D

## Nc1ccc(-c2cccs2)cc1NC(=O)c1ccc2c(c1)cc(C1CC1)n2CCN1CCOCC1 [ACY-1035]
  RFU, SH3YL1: 63.67 RFU
